Measured values reported in patent publication US5089623A, “Certain imidate insecticides” (Imperial Chemical Industries Plc, priority 1990, dated 1992).

Columns and labels:
Type in all cases: in vivo
[1] = system: Housefly [Musca domestica]; experiment: Housefly insecticidal test (HF); details: per 25 female houseflies, 48 hours
[2] = system: Cabbage Looper [Trichoplusia ni (Hubner)]; experiment: Cabbage looper test (CL); details: second-instar larvae, 3-5 days, percent in solution
[3] = system: Tobacco Budworm [Heliothis virescens (Fabricius)] eggs; experiment: Tobacco budworm egg test (TBW-E); details: percent in solution
[4] = system: Black Bean Aphid [Aphis fabae (Scop.)]; experiment: Black bean aphid test (BBA); details: percent of test compound in sprayed solution, 48 hours
Procedure: The compounds in Tables 1 and 2 above were tested for insecticidal activity using the following testing procedures. LC50 values, based on the results of these tests and calculated according to dosage-mortality curves, are expressed in Table 3.
Black Bean Aphid [Aphis fabae (Scop.)]
Nasturtium plants (Tropaeolum sp.) approximately 5 cm tall, were transplanted into sandy loam soil in small cups and infested with 25-50 black bean aphids of mixed ages. Twenty-four hours later they were sprayed to the point of runoff with 50-50 acetone-water solutions of the test compounds. Treated plants were held in the greenhouse and mortality was recorded after 48 hours. Test concentrations ranged from 0.05% downward. The LC-50 value is expressed below in Table 3 under the heading "BBA" in terms of percent of the test compound in the sprayed solution.

[5] = system: Rice water weevil [Lissorhoptrus oryzophilus (Kuschel)]; experiment: Rice water weevil test (RWW); details: per weevil, topical, female adults, 48 hours
[6] = system: Tobacco Budworm [Heliothis virescens (Fabricius)]; experiment: Tobacco budworm contact test (TBW-C); details: second-instar larvae, 5 days, percent in solution
How it was run: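 Cotton cotyledons dipped 2–3 s in compound in 50:50 acetone–water, dried, then infested with 5 second-instar larvae and held 5 days at high humidity before scoring mortality.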

[7] = system: Maize weevil [Sitophilus Zeamais (Motschulsky)]; experiment: Maize weevil test (MW); details: adult weevils, treated corn seeds, 48 hours, percent in solution
How it was run: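 Adult weevils (10) were placed with four corn seeds that had been dipped 2-3 s in compound dissolved in 50:50 acetone:water, then dried, and held at about 25° C. Mortality was scored at 48 h. LC50 was taken from dosage-mortality curves and expressed as percent compound in solution, from a 0.01% top concentration.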

[8] = system: Beet Armyworm (Spodoptera exigua); experiment: Beet armyworm test (BAW); details: second-instar larvae, five days, percent in solution
How it was run: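 Sugar beet leaves were dipped 2-3 s in compound diluted in 50-50 acetone-water, dried, then infested with five second-instar larvae in humid dishes. Mortality was scored after five days at concentrations from 0.1% downward. LC50 was taken from dosage-mortality curves as percent compound in solution.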

[9] = system: Aster Leafhopper [Macrosteles fascifrens (Stal)]; experiment: Aster leafhopper test (LH); details: adults/nymphs, 48 hours, percent in solution

| SMILES | LC50 HF [1] [µg] | LC50 CL [2] [%] | LC50 TBW E [3] [%] | LC50 BBA [4] [%] | LC50 RWW [5] [µg] | LC50 TBW C [6] [%] | LC50 MW [7] [%] | LC50 BAW [8] [%] | LC50 LH [9] [%] |
| --- | --- | --- | --- | --- | --- | --- | --- | --- | --- |
| C=CCOc1cccc(COC(=Nc2cccc(C(F)(F)F)c2)C(C)C)c1 [Compound 480] | > 100 | 0.01 | > 0.1 | > 0.05 |  |  |  |  |  |
| CC(C)C(=Nc1ccc(F)c(F)c1F)OCc1ccc(F)c(Oc2ccc(F)cc2)c1 [Compound 349] | 4.9 | 0.00007 | > 0.1 | > 0.05 | > 2.5 | 0.0004 | > 0.01 | > 0.1 |  |
| C=CCOc1cccc(COC(=Nc2ccc(F)c(Cl)c2)C(C)C)c1 [Compound 479] | 66 | 0.013 | > 0.1 | > 0.05 |  |  | > 0.01 |  | > 0.05 |
| CC(C)C(=Nc1ccc(C(F)(F)F)cc1)OCc1cccc(Cc2ccccc2)c1 [Compound 535] | 41 | > 0.1 |  | > 0.05 |  |  | > 0.01 |  | > 0.05 |
| CC(C)C(=Nc1ccc(F)c(Cl)c1)OCc1cccc(Cc2ccccc2)c1 [Compound 537] | 20 | > 0.1 |  | > 0.05 |  |  | > 0.01 |  | > 0.05 |
| CC(C)C(=Nc1ccc(F)c(Cl)c1)OCc1ccc(F)c(Oc2ccccc2)c1 [Compound 82] | 2.5 | 0.00018 | 0.006 | 0.00021 | 0.086 | 0.0008 |  | 0.0025 | 0.0001 |
